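Method: 48-hour compound exposure of cells in 96-well plates, five concentrations, linear interpolation of endpoints. GI50 is the concentration that inhibits growth by half. TGI: total growth inhibition.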
Assays:
Assay in all cases: growth of human tumour cells (NCI), 48 h
786-0 renal = test system: 786-0 renal
A498 renal = test system: A498 renal
A549 NSCLC = test system: A549 NSCLC
ACHN renal = test system: ACHN renal
BT-549 breast = test system: BT-549 breast
CAKI-1 renal = test system: CAKI-1 renal
CCRF-CEM leukemia = test system: CCRF-CEM leukemia
COLO 205 colon = test system: COLO 205 colon
DU-145 prostate = test system: DU-145 prostate
EKVX NSCLC = test system: EKVX NSCLC
HCC-2998 colon = test system: HCC-2998 colon
HCT-116 colon = test system: HCT-116 colon
HCT-15 colon = test system: HCT-15 colon
HL-60(TB) leukemia = test system: HL-60(TB) leukemia
HOP-62 NSCLC = test system: HOP-62 NSCLC
HOP-92 NSCLC = test system: HOP-92 NSCLC
HS 578T breast = test system: HS 578T breast
HT29 colon = test system: HT29 colon
IGROV1 ovarian = test system: IGROV1 ovarian
K-562 leukemia = test system: K-562 leukemia
KM12 colon = test system: KM12 colon
LOX IMVI melanoma = test system: LOX IMVI melanoma
M14 melanoma = test system: M14 melanoma
MALME-3M melanoma = test system: MALME-3M melanoma
MCF7 breast = test system: MCF7 breast
MDA-MB-231 breast = test system: MDA-MB-231 breast
MDA-MB-435 = test system: MDA-MB-435
MOLT-4 leukemia = test system: MOLT-4 leukemia
NCI-H226 lung = test system: NCI-H226 lung
NCI-H23 lung = test system: NCI-H23 lung
NCI-H460 lung = test system: NCI-H460 lung
NCI-H522 lung = test system: NCI-H522 lung
NCI/ADR-RES ovarian = test system: NCI/ADR-RES ovarian
OVCAR-3 ovarian = test system: OVCAR-3 ovarian
OVCAR-4 ovarian = test system: OVCAR-4 ovarian
OVCAR-5 ovarian = test system: OVCAR-5 ovarian
OVCAR-8 ovarian = test system: OVCAR-8 ovarian
PC-3 prostate = test system: PC-3 prostate
RPMI-8226 leukemia = test system: RPMI-8226 leukemia
RXF 393 renal = test system: RXF 393 renal
SF-268 CNS = test system: SF-268 CNS
SF-295 CNS = test system: SF-295 CNS
SF-539 CNS = test system: SF-539 CNS
SK-MEL-2 melanoma = test system: SK-MEL-2 melanoma
SK-MEL-28 melanoma = test system: SK-MEL-28 melanoma
SK-MEL-5 melanoma = test system: SK-MEL-5 melanoma
SK-OV-3 ovarian = test system: SK-OV-3 ovarian
SN12C renal = test system: SN12C renal
SNB-19 CNS = test system: SNB-19 CNS
SNB-75 CNS = test system: SNB-75 CNS
SR leukemia = test system: SR leukemia
SW-620 colon = test system: SW-620 colon
T-47D breast = test system: T-47D breast
TK-10 renal = test system: TK-10 renal
U251 CNS = test system: U251 CNS
UACC-257 melanoma = test system: UACC-257 melanoma
UACC-62 melanoma = test system: UACC-62 melanoma
UO-31 renal = test system: UO-31 renal
MDA-N = test system: MDA-N

Work on CC(C)[C@@H]1CC[C@@H]2[C@@H]1[C@H](OC(=O)/C=C/c1ccccc1)[C@]1(C(C)C)C[C@@H](OC(=O)CO)[C@@]2(C)O1 yielded a GI50 (786-0 renal) of 4.55 µM, a TGI (786-0 renal) of 9.23 µM and a GI50 (A498 renal) of 0.00806 µM. For the same compound, the TGI (A498 renal) was 0.0288 µM, the GI50 (A549 NSCLC) was 6.61 µM and the TGI (A549 NSCLC) was 14.4 µM. It also gave a GI50 (ACHN renal) of 0.00824 µM, a TGI (ACHN renal) of 4.25 µM and a GI50 (BT-549 breast) of 0.0375 µM. It also gave a TGI (BT-549 breast) of 4.38 µM, a GI50 (CAKI-1 renal) of 0.133 µM and a TGI (CAKI-1 renal) of 6.73 µM. The GI50 (CCRF-CEM leukemia) was 6.9 µM, the TGI (CCRF-CEM leukemia) was 15.2 µM and the GI50 (COLO 205 colon) was 6.12 µM. The TGI (COLO 205 colon) was 12.8 µM, the GI50 (DU-145 prostate) was 7.02 µM and the TGI (DU-145 prostate) was 13.4 µM. For the same compound, the GI50 (EKVX NSCLC) was 4.34 µM, the TGI (EKVX NSCLC) was 8.8 µM and the GI50 (HCC-2998 colon) was 6.35 µM. The TGI (HCC-2998 colon) was 11.7 µM, the GI50 (HCT-116 colon) was 5.79 µM and the TGI (HCT-116 colon) was 11.3 µM. For the same compound, the GI50 (HCT-15 colon) was 4.72 µM, the TGI (HCT-15 colon) was 10 µM and the GI50 (HL-60(TB) leukemia) was 8.07 µM. The TGI (HL-60(TB) leukemia) was 18.4 µM, the GI50 (HOP-62 NSCLC) was 6.45 µM and the TGI (HOP-62 NSCLC) was 14.5 µM. For the same compound, the GI50 (HOP-92 NSCLC) was 4.34 µM, the TGI (HOP-92 NSCLC) was 8.88 µM and the GI50 (HS 578T breast) was 0.00325 µM. It also gave a TGI (HS 578T breast) of 0.0136 µM, a GI50 (HT29 colon) of 6.92 µM and a TGI (HT29 colon) of 14.4 µM. For the same compound, the GI50 (IGROV1 ovarian) was 6.79 µM, the TGI (IGROV1 ovarian) was 12.5 µM and the GI50 (K-562 leukemia) was 10.4 µM. The TGI (K-562 leukemia) was 24.1 µM, the GI50 (KM12 colon) was 7.07 µM and the TGI (KM12 colon) was 14.6 µM. The GI50 (LOX IMVI melanoma) was 5.36 µM, the TGI (LOX IMVI melanoma) was 10.2 µM and the GI50 (M14 melanoma) was 5.83 µM. The TGI (M14 melanoma) was 12.1 µM, the GI50 (MALME-3M melanoma) was 5.97 µM and the TGI (MALME-3M melanoma) was 11.1 µM. For the same compound, the GI50 (MCF7 breast) was 4.88 µM, the TGI (MCF7 breast) was 10.5 µM and the GI50 (MDA-MB-231 breast) was 5.38 µM. The TGI (MDA-MB-231 breast) was 10.4 µM, the GI50 (MDA-MB-435) was 5.65 µM and the TGI (MDA-MB-435) was 10.6 µM. It also gave a GI50 (MOLT-4 leukemia) of 6.94 µM, a TGI (MOLT-4 leukemia) of 14.9 µM and a GI50 (NCI-H226 lung) of 5.27 µM. The TGI (NCI-H226 lung) was 10.9 µM, the GI50 (NCI-H23 lung) was 6.88 µM and the TGI (NCI-H23 lung) was 14.1 µM. It also gave a GI50 (NCI-H460 lung) of 6.15 µM, a TGI (NCI-H460 lung) of 11.7 µM and a GI50 (NCI-H522 lung) of 6.19 µM. The TGI (NCI-H522 lung) was 13.2 µM, the GI50 (NCI/ADR-RES ovarian) was 0.0795 µM and the TGI (NCI/ADR-RES ovarian) was 5 µM. The GI50 (OVCAR-3 ovarian) was 6.69 µM, the TGI (OVCAR-3 ovarian) was 11.9 µM and the GI50 (OVCAR-4 ovarian) was 5.15 µM. The TGI (OVCAR-4 ovarian) was 9.93 µM, the GI50 (OVCAR-5 ovarian) was 5.15 µM and the TGI (OVCAR-5 ovarian) was 10.2 µM. It also gave a GI50 (OVCAR-8 ovarian) of 0.0259 µM, a TGI (OVCAR-8 ovarian) of 9.86 µM and a GI50 (PC-3 prostate) of 5.31 µM. For the same compound, the TGI (PC-3 prostate) was 12.2 µM, the GI50 (RPMI-8226 leukemia) was 7.44 µM and the TGI (RPMI-8226 leukemia) was 16.5 µM. It also gave a GI50 (RXF 393 renal) of 3.31 µM, a TGI (RXF 393 renal) of 8.31 µM and a GI50 (SF-268 CNS) of 4.02 µM. The TGI (SF-268 CNS) was 9.03 µM, the GI50 (SF-295 CNS) was 5.07 µM and the TGI (SF-295 CNS) was 9.56 µM. It also gave a GI50 (SF-539 CNS) of 5.25 µM, a TGI (SF-539 CNS) of 10.2 µM and a GI50 (SK-MEL-2 melanoma) of 7.71 µM. It also gave a TGI (SK-MEL-2 melanoma) of 17.6 µM, a GI50 (SK-MEL-28 melanoma) of 4.89 µM and a TGI (SK-MEL-28 melanoma) of 9.87 µM. It also gave a GI50 (SK-MEL-5 melanoma) of 5.96 µM, a TGI (SK-MEL-5 melanoma) of 10.8 µM and a GI50 (SK-OV-3 ovarian) of 10.3 µM. It also gave a TGI (SK-OV-3 ovarian) of 32.5 µM, a GI50 (SN12C renal) of 3.39 µM and a TGI (SN12C renal) of 8.04 µM. For the same compound, the GI50 (SNB-19 CNS) was 5.37 µM, the TGI (SNB-19 CNS) was 10.8 µM and the GI50 (SNB-75 CNS) was 3.46 µM. It also gave a TGI (SNB-75 CNS) of 8.5 µM, a GI50 (SR leukemia) of 7.91 µM and a TGI (SR leukemia) of 18.7 µM. The GI50 (SW-620 colon) was 6.26 µM, the TGI (SW-620 colon) was 12.9 µM and the GI50 (T-47D breast) was 5.27 µM. For the same compound, the TGI (T-47D breast) was 12.5 µM, the GI50 (TK-10 renal) was 6.46 µM and the TGI (TK-10 renal) was 15.4 µM. It also gave a GI50 (U251 CNS) of 5.54 µM, a TGI (U251 CNS) of 10.6 µM and a GI50 (UACC-257 melanoma) of 7.83 µM. The TGI (UACC-257 melanoma) was 17.6 µM, the GI50 (UACC-62 melanoma) was 4.94 µM and the TGI (UACC-62 melanoma) was 9.97 µM. The GI50 (UO-31 renal) was 0.011 µM and the TGI (UO-31 renal) was 0.0857 µM.
S=C1SC(c2ccc(Cl)cc2)(c2ccc(Cl)cc2)c2ccccc21 was tested, and the TGI (786-0 renal) was > 100 µM, the TGI (A498 renal) was > 100 µM and the TGI (A549 NSCLC) was > 100 µM. For the same compound, the TGI (ACHN renal) was > 100 µM, the TGI (BT-549 breast) was > 100 µM and the TGI (CAKI-1 renal) was > 100 µM. For the same compound, the TGI (CCRF-CEM leukemia) was > 100 µM, the TGI (COLO 205 colon) was > 100 µM and the TGI (DU-145 prostate) was > 100 µM. The TGI (EKVX NSCLC) was > 100 µM, the TGI (HCC-2998 colon) was > 100 µM and the TGI (HCT-116 colon) was > 100 µM. The TGI (HCT-15 colon) was > 100 µM, the TGI (HOP-62 NSCLC) was > 100 µM and the TGI (HOP-92 NSCLC) was > 100 µM. The TGI (HS 578T breast) was > 100 µM, the TGI (HT29 colon) was > 100 µM and the TGI (IGROV1 ovarian) was > 100 µM. The TGI (K-562 leukemia) was > 100 µM, the TGI (KM12 colon) was > 100 µM and the TGI (LOX IMVI melanoma) was > 100 µM. For the same compound, the TGI (M14 melanoma) was > 100 µM, the TGI (MALME-3M melanoma) was > 100 µM and the TGI (MCF7 breast) was > 100 µM. For the same compound, the TGI (MDA-MB-231 breast) was > 100 µM, the TGI (MDA-MB-435) was > 100 µM and the TGI (MDA-N) was > 100 µM. The TGI (MOLT-4 leukemia) was > 100 µM, the TGI (NCI-H226 lung) was > 100 µM and the TGI (NCI-H23 lung) was > 100 µM. For the same compound, the TGI (NCI-H460 lung) was > 100 µM, the TGI (NCI-H522 lung) was > 100 µM and the TGI (NCI/ADR-RES ovarian) was > 100 µM. The TGI (OVCAR-3 ovarian) was > 100 µM, the TGI (OVCAR-4 ovarian) was > 100 µM and the TGI (OVCAR-5 ovarian) was > 100 µM. For the same compound, the TGI (OVCAR-8 ovarian) was > 100 µM, the TGI (PC-3 prostate) was > 100 µM and the TGI (RXF 393 renal) was > 100 µM. For the same compound, the TGI (SF-268 CNS) was > 100 µM, the TGI (SF-295 CNS) was > 100 µM and the TGI (SF-539 CNS) was > 100 µM. The TGI (SK-MEL-28 melanoma) was > 100 µM, the TGI (SK-MEL-5 melanoma) was > 100 µM and the TGI (SK-OV-3 ovarian) was > 100 µM. The TGI (SN12C renal) was > 100 µM, the TGI (SNB-19 CNS) was > 100 µM and the TGI (SNB-75 CNS) was > 100 µM. The TGI (SR leukemia) was 89.9 µM, the TGI (SW-620 colon) was > 100 µM and the TGI (TK-10 renal) was > 100 µM. For the same compound, the TGI (U251 CNS) was > 100 µM, the TGI (UACC-257 melanoma) was > 100 µM and the TGI (UACC-62 melanoma) was > 100 µM. The TGI (UO-31 renal) was > 100 µM.
